From article PMC5430874 (Scientific Reports, 2017)
Changes are numbered by the printed parent chain. Like-named read-outs stand apart in the source and are kept apart here.

Experiments:
[1] = system: GPR139; settings: cited from earlier work; for activation of GPR139, concentration range: ref Isberg et al. and Liu et al.
[2] = target: T1, GPR139 F109L^3×33 (Homo sapiens, UniProt Q6DWJ6, F109L); test: Fluo-4 Ca2+-assay, GPR139 mutant F109L; type: cell-based; settings: for EC50: F109L mutant
T1 construct: mGluR5 signal peptide (N); expressed in transfected cells; host or cells: HEK293
T1 sequence (Q6DWJ6 2-353 F109L limits assumed): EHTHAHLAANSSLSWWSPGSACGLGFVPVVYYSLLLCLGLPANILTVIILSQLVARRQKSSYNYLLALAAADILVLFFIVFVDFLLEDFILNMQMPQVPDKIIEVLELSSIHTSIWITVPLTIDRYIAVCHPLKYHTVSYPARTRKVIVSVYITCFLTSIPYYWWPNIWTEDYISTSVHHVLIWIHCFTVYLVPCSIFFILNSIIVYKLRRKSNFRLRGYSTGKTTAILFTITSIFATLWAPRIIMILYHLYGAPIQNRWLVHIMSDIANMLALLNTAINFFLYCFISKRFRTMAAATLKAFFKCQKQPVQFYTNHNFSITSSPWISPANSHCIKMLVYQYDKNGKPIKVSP
Source text: (§1) To study the influence of specific amino acids in the predicted binding pocket on receptor function, the desired mutations were introduced into an N-terminally c-myc-tagged wild type human GPR139 (NM_001002911.3) in the pEGFP-N1 vector (BD Biosciences)[32], [33]. As previously described, these plasmids carry the signal peptide of mGluR5 to promote cell surface expression followed by a c-myc epitope to enable detection of total and surface expression by ELISA, followed by an engineered MluI and NotI site for easy insertion of the receptor of interest. Furthermore, the start-codon in the GPR139 sequence was deleted to ensure c-myc-tagging. Mutagenesis was designed in Serial Cloner 2.6 (© Franck Perez [SerialBasics]) and carried out by GenScript (USA). All mutated residues are illustrated in Supplementary Fig. 1b. An untagged GPR139(WT) in pEGFP-N1 was also generated to ensure that the c-myc-tag had no influence on GPR139(WT) function.
(§2) All GPR139 mutants were transfected into HEK293 cells. The HEK293 cells were grown in Dulbecco’s modified Eagle’s medium (DMEM) (Gibco, 41965) supplemented with 10% dialyzed fetal bovine serum (Gibco, 26400, United States origin), 100 units/mL penicillin and 100 μg/mL streptomycin (Gibco, 15140). HEK293 cells were reverse transfected using Lipofectamine2000 (Invitrogen). More specifically two mixtures were made: 1) 10 ng DNA/well + 25 μL Opti-MEM/well and 2) […] Lipofectamine2000/well + 25 μL Opti-MEM/well. The two mixtures were mixed and 50 μL/well was added directly in black 96-well plates with flat clear bottoms for the Fluo-4 Ca^2+-assay (Corning, Falcon, 353219) or in white Opaque 96-well Microplate (PerkinElmer Life, 6005680) for ELISA. 100 μL containing 20,000 cells were added to each well and incubated 48 hours before assays. All plates were coated with poly-D-lysine.
(§3) Compound 1a (1a) was kindly provided by H. Lundbeck A/S, Denmark. […] Both compounds were dissolved to 20 mM in DMSO (Sigma, D2650) and subsequently diluted in a HEPES buffer (HBSS (Gibco, 14025) supplemented with 20 mM HEPES + 1 mM MgCl2 + 1 mM CaCl2, pH = 7.4) to a final concentration of 0.5% DMSO in the Fluo-4 Ca^2+-assay. The DMSO level was kept constant for all concentrations of both compounds. DMSO was confirmed not to have any activity by itself at this concentration. L-Trp (T0254) and L -Phe (P2126) were obtained from Sigma-Aldrich and dissolved in buffer.
(§4) The Ca^2+ measurements were preformed using the Fluo-4 NW Calcium Assay Kit (Invitrogen, Molecular Probes, F36206) as previously described. Briefly, the Fluo-4 dye loading solution was prepared according to the manufacturer’s instructions by dissolving it in HEPES-buffer supplemented with 2.5 mM probenecid. 50 μL dye loading solution was added to each well. Cells were incubated with the Fluo-4 dye for 60 min at 37 °C, then washed with 100 μL HEPES-buffer. 100 μL HEPES-buffer supplemented with 2.5 mM probenecid was then added to each well and incubated in 10 minutes at 37 °C before measurement. […] Intracellular calcium changes were recorded as indicated on either a NOVOstar (BMG Labtech) at 37 °C with an excitation filter of 485 nm and an emission filters 520 nm or a FlexStation 3 Benchtop Multi-Mode Microplate Reader (Molecular Devices) at 37 °C with an excitation wavelength of 485 nm and emission of 525 nm.
(§5) All pharmacological data have been analyzed by using Prism 6.0 (GraphPad Software Inc., San Diego). Fitting of concentration response curves was performed by non-linear regression log(agonist) vs. response (four parameters). Pooled data are shown with standard error of the mean (S.E.M.) and data showing one representative are shown with standard deviation (S.D.). Changes in potency (pEC50) and span of myc-GPR139(WT) in comparison to untagged GPR139(WT) was statistically analyzed with a paired t-test and significance was accepted at p < 0.05. The ELISA data were normalized to surface expression of myc-GPR139(WT) (100%). […]

[3] = target: T2, myc-GPR139(WT) (Homo sapiens, UniProt Q6DWJ6); test: Fluo-4 Ca2+-assay, myc-tagged wild-type GPR139 in HEK293; type: cell-based; settings: for Emax: HEK293; for EC50: Fluo-4 Ca2+-assay
T2 construct: mGluR5 signal peptide (N); expressed in transfected cells; host or cells: HEK293
T2 sequence (Q6DWJ6 2-353 limits assumed): T1 sequence (Q6DWJ6 2-353 F109L limits assumed) with L108F
Source text: as §1, §2, §3, §4, §5

[4] = WT, HEK293, three independent experiments, read-out: pEC50 ± SEM (converted)

## N[C@@H](Cc1ccccc1)C(=O)O [L-Phe, phenylalanine]
[1]
  activation of GPR139, concentration range: hundred-micromolar range
[2]
  EC50: > 31600 µM
[2]; F109L, at 30 mM, normalized to buffer (0%) and 30 mM Phe (100%) on WT
  Emax at 30000 µM: 72 ± 9%
[3]; WT, normalized to buffer (0%) and 30 mM Phe (100%)
  Emax: 100%
[3]; [4]
  EC50: 372 µM

## N[C@@H](Cc1c[nH]c2ccccc12)C(=O)O [L-Trp, tryptophan]
[1]
  activation of GPR139, concentration range: hundred-micromolar range
[2]
  EC50: > 10000 µM
[2]; F109L, at 10 mM, normalized to buffer (0%) and 10 mM Trp (100%) on WT
  Emax at 10000 µM: 60 ± 5%
[3]; WT, normalized to buffer (0%) and 10 mM Trp (100%)
  Emax: 100%
[3]; [4]
  EC50: 200 µM

## C[C@@H](NC(=O)CNC(=O)c1cccc(Cl)c1)c1ccccc1 (racemic) [Compound 7c]
[1]; ref Dvorak et al.
  agonist potency: ten-nanomolar range
[2]
  Emax: 102 ± 3%
  EC50: 3.98 µM
[2]; F109L mutant versus WT
  change of potency: ~ 100 fold
[3]
  Emax: 100%
[3]; [4]
  EC50: 0.0479 µM

## COc1cc(OC)cc(C(=O)NNC(=O)Nc2cccc3ccccc23)c1 [Compound 1a]
[1]; ref Shi et al.
  agonist potency: ten-nanomolar range
[2]
  EC50: > 7.94 µM
[2]; F109L, at 8 μM, normalized to buffer (0%) and 8 μM 1a (100%) on WT
  Emax at 8 µM: 42 ± 16%
[3]; [4]
  EC50: 0.234 µM
[3]; myc-tagged wild-type (WT) receptor, read-out: EC50
  EC50: 0.67 µM
